# “And” between values parts separate entries of the source, which are not always exact repeats. Equal values may be shown once.
# Legend:
# [1] = Drug tolerability (body weight) in TC-71 Ewing sarcoma xenograft model; assay type: in vivo, Athymic nude mice; conditions: Irinotecan 50 mg/kg; for BWL %: negative = loss vs day 9
# Experimental: (§1) Experiments were performed with female Athymic nude mice, 9-10 weeks old obtained from Harlan Laboratories (Udine, Italy). They were maintained under Specific Pathogen Free conditions with constant temperature and humidity, according to the institutional guidelines.
# (§2) Tumour growth mice was monitored two/three times a week (depending on tumour growth rate, to avoid unnecessary stress to the animals) by Vernier caliper. Mice were sacrificed when tumour reached a mean weight of 2±0.5 gr. The antitumour activity will be expressed as T/C %, where T and C were the mean tumour weight of treated and control groups, respectively. Mice were monitored daily and weighted at least two times a week. Tolerability was evaluated on the basis of body weight loss (BWL) and clinical observation.
# TC-71 Ewing sarcoma = experiment: Antitumour activity in TC-71 Ewing sarcoma xenograft model; assay type: in vivo, Athymic nude mice
# Experimental: as §1, §2
# Statistical analysis was performed with GraphPad Prism version 6.01 software (GraphPad software, Inc., La Jolla, CA, USA). ANOVA test was performed to evaluate if there were statistically significant differences between treated and control groups.
# 5×10^6 TC-71 cells were inoculated subcutaneously in the right flank of mice. The growing tumour masses were measured with the aid of a Vernier caliper, and the tumour weights (1 mm^3=1 mg) were calculated by the formula: length×(width) 2/2. When tumour load achieved about 100 mg, mice were randomized into the experimental groups and treatment started.
# [2] = day 9 from tumour inoculum (treatment start)
# [3] = 50 mg/kg i.v. q7dx3, day 9 from inoculum
# [4] = 50 mg/kg i.v. q7dx3, day 11 from inoculum
# [5] = 50 mg/kg i.v. q7dx3, day 14 from inoculum
# [6] = 50 mg/kg i.v. q7dx3, day 16 from inoculum
# [7] = 50 mg/kg i.v. q7dx3, day 18 from inoculum
# [8] = 50 mg/kg i.v. q7dx3, day 21 from inoculum
# [9] = 50 mg/kg i.v. q7dx3, day 23 from inoculum
# [10] = 50 mg/kg i.v. q7dx3, day 25 from inoculum
# [11] = 50 mg/kg i.v. q7dx3, day 28 from inoculum
# [12] = 50 mg/kg i.v. q7dx3, day 30 from inoculum
# [13] = 50 mg/kg i.v. q7dx3, day 32 from inoculum
# [14] = 50 mg/kg i.v. q7dx3, day 35 from inoculum
# [15] = 50 mg/kg i.v. q7dx3, day 38 from inoculum
# [16] = 50 mg/kg i.v. q7dx3, day 42 from inoculum
# [17] = 50 mg/kg i.v. q7dx3, day 45 from inoculum
# [18] = 50 mg/kg i.v. q7dx3, day 49 from inoculum
# [19] = 50 mg/kg i.v. q7dx3, day 53 from inoculum
compound,measurement,setting,value
"CCc1c2c(nc3ccc(OC(=O)N4CCC(N5CCCCC5)CC4)cc13)-c1cc3c(c(=O)n1C2)COC(=O)[C@]3(O)CC [Irinotecan, reference compound]","Mouse body weight, group Mean",[1]; [2],27.4 g
same,BWL %,[1]; [2],0.0%
same,"Mouse body weight, group Mean",[1]; day 10 from tumour inoculum,25.8 g
same,BWL %,[1]; day 10 from tumour inoculum,−6.1%
same,"Mouse body weight, group Mean",[1]; day 11 from tumour inoculum,25.6 g
same,BWL %,[1]; day 11 from tumour inoculum,−6.6%
same,"Mouse body weight, group Mean",[1]; day 14 from tumour inoculum,26.9 g
same,BWL %,[1]; day 14 from tumour inoculum,−1.9%
same,"Mouse body weight, group Mean",[1]; day 16 from tumour inoculum,27.0 g
same,BWL %,[1]; day 16 from tumour inoculum,−1.7%
same,"Mouse body weight, group Mean",[1]; day 18 from tumour inoculum,26.0 g
same,BWL %,[1]; day 18 from tumour inoculum,−5.3%
same,"Mouse body weight, group Mean",[1]; day 21 from tumour inoculum,26.2 g
same,BWL %,[1]; day 21 from tumour inoculum,−4.3%
same,"Mouse body weight, group Mean",[1]; day 23 from tumour inoculum,26.5 g
same,BWL %,[1]; day 23 from tumour inoculum,−3.5%
same,"Mouse body weight, group Mean",[1]; day 25 from tumour inoculum,25.4 g
same,BWL %,[1]; day 25 from tumour inoculum,−7.5%
same,"Mouse body weight, group Mean",[1]; day 28 from tumour inoculum,26.4 g
same,BWL %,[1]; day 28 from tumour inoculum,−3.9%
same,"Mouse body weight, group Mean",[1]; day 30 from tumour inoculum,27.1 g
same,BWL %,[1]; day 30 from tumour inoculum,−1.1%
same,"Mouse body weight, group Mean",[1]; day 32 from tumour inoculum,27.0 g
same,BWL %,[1]; day 32 from tumour inoculum,−1.6%
same,"Mouse body weight, group Mean",[1]; day 35 from tumour inoculum,27.9 g
same,BWL %,[1]; day 35 from tumour inoculum,1.7%
same,"Mouse body weight, group Mean",[1]; day 38 from tumour inoculum,27.2 g
same,BWL %,[1]; day 38 from tumour inoculum,−0.7%
same,"Mouse body weight, group Mean",[1]; day 42 from tumour inoculum,28.4 g
same,BWL %,[1]; day 42 from tumour inoculum,3.5%
same,"Mouse body weight, group Mean",[1]; day 46 from tumour inoculum,27.8 g
same,BWL %,[1]; day 46 from tumour inoculum,1.5%
same,"Mouse body weight, group Mean",[1]; day 49 from tumour inoculum,28.4 g
same,BWL %,[1]; day 49 from tumour inoculum,3.6%
same,"Mouse body weight, group Mean",[1]; day 53 from tumour inoculum,28.1 g
same,BWL %,[1]; day 53 from tumour inoculum,2.3%
same,"TC-71 tumour weight, individual mice",TC-71 Ewing sarcoma; [3],316.8 mg and 124.6 mg and 103.5 mg and 88.1 mg
same,"TC-71 tumour weight, mean",TC-71 Ewing sarcoma; [3],106.4 mg
same,"TC-71 tumour weight, individual mice",TC-71 Ewing sarcoma; [4],90.6 mg and 45.7 mg and 63.3 mg
same,"TC-71 tumour weight, mean",TC-71 Ewing sarcoma; [4],76.4 mg
same,"TC-71 tumour weight, individual mice",TC-71 Ewing sarcoma; [5],87.8 mg and 16.6 mg and 9.9 mg and 17.1 mg
same,"TC-71 tumour weight, mean",TC-71 Ewing sarcoma; [5],22.6 mg
same,"TC-71 tumour weight, individual mice",TC-71 Ewing sarcoma; [6],99.6 mg and 41.5 mg and 23.8 mg and 72.8 mg
same,"TC-71 tumour weight, mean",TC-71 Ewing sarcoma; [6],35.0 mg
same,"TC-71 tumour weight, individual mice",TC-71 Ewing sarcoma; [7],44.2 mg and 11.3 mg and 8.8 mg and 28.1 mg
same,"TC-71 tumour weight, mean",TC-71 Ewing sarcoma; [7],14.8 mg
same,optimal T/C,"TC-71 Ewing sarcoma; 50 mg/kg i.v. q7dx3, day 21",0.4%
same,"TC-71 tumour weight, individual mice",TC-71 Ewing sarcoma; [8],9.6 mg and 2.4 mg and 6.1 mg and 7.5 mg
same,"TC-71 tumour weight, mean",TC-71 Ewing sarcoma; [8],6.1 mg
same,"TC-71 tumour weight, individual mice",TC-71 Ewing sarcoma; [9],1.7 mg and 5.4 mg
same,"TC-71 tumour weight, mean",TC-71 Ewing sarcoma; [9],7.0 mg
same,"TC-71 tumour weight, individual mice",TC-71 Ewing sarcoma; [10],9.9 mg and 3.3 mg
same,"TC-71 tumour weight, mean",TC-71 Ewing sarcoma; [10],5.9 mg
same,"TC-71 tumour weight, individual mice",TC-71 Ewing sarcoma; [11],6.8 mg and 1.5 mg and 3.3 mg and 2.5 mg
same,"TC-71 tumour weight, mean",TC-71 Ewing sarcoma; [11],3.5 mg
same,"TC-71 tumour weight, individual mice",TC-71 Ewing sarcoma; [12],15.4 mg and 2.7 mg and 3.8 mg and 2.6 mg
same,"TC-71 tumour weight, mean",TC-71 Ewing sarcoma; [12],6.1 mg
same,"TC-71 tumour weight, individual mice",TC-71 Ewing sarcoma; [13],83.7 mg and 8.2 mg and 12.1 mg and 9.2 mg
same,"TC-71 tumour weight, mean",TC-71 Ewing sarcoma; [13],28.3 mg
same,"TC-71 tumour weight, individual mice",TC-71 Ewing sarcoma; [14],223.4 mg and 42.7 mg and 36.0 mg and 53.8 mg
same,"TC-71 tumour weight, mean",TC-71 Ewing sarcoma; [14],88.9 mg
same,"TC-71 tumour weight, individual mice",TC-71 Ewing sarcoma; [15],713.8 mg and 105.6 mg and 74.5 mg and 145.5 mg
same,"TC-71 tumour weight, mean",TC-71 Ewing sarcoma; [15],259.8 mg
same,"TC-71 tumour weight, individual mice",TC-71 Ewing sarcoma; [16],2687.8 mg and 327.2 mg and 346.6 mg and 199.0 mg
same,"TC-71 tumour weight, mean",TC-71 Ewing sarcoma; [16],890.2 mg
same,"TC-71 tumour weight, individual mice",TC-71 Ewing sarcoma; [17],2443.2 mg and 627.6 mg and 589.7 mg and 305.0 mg
same,"TC-71 tumour weight, mean",TC-71 Ewing sarcoma; [17],991.4 mg
same,"TC-71 tumour weight, individual mice",TC-71 Ewing sarcoma; [18],2887.4 mg and 1184.6 mg and 1244.3 mg and 316.1 mg
same,"TC-71 tumour weight, mean",TC-71 Ewing sarcoma; [18],1408.1 mg
same,"TC-71 tumour weight, individual mice",TC-71 Ewing sarcoma; [19],3331.8 mg and 1062.6 mg and 2135.1 mg and 308.0 mg
same,"TC-71 tumour weight, mean",TC-71 Ewing sarcoma; [19],1709.4 mg
same,mice exhibiting sustained CR up to the conclusion of the experiment,TC-71 Ewing sarcoma; 50 mg/kg q7dx3,4 mice
same,tumour regression,TC-71 Ewing sarcoma; 50 mg/kg q7dx3,tumour regression in all mice

# Source: US12257237B2 (priority 2017, dated 2025)
